Reference: patent US20080213175A1, “Click chemistry-derived cyclic peptidomimetics as integrin markers” (priority 2006, published 2008)
Each block holds one compound with its values, some of them ahead of it.

Columns and labels:
[1] = molecular target: Integrin αvβ3 (Homo sapiens, UniProt P05106+P06756); test: Surface plasmon resonance (SPR) 'inverse' integrin αvβ3 assay; type: binding
Description: Compound 17 was immobilized onto a CM5 chip (Supplier: Biacore. CM5 is a SPR chip with a carboxymethylated dextran covalently attached to a gold surface) via amine coupling. Integrin αvβ3 samples at 25 nM concentration, premixed with a wide range of concentrations of RGD test compound (0˜1000 nm), were flowed through the CM5 chip at 14° C. The interactions between the flowing integrin αvβ3 sample and the surface of the chip were recorded by Biacore sensorgram signals. Flow cell #1 served as blank control and the flow cell #2 were coated with compound 17. After subtraction the blank signal of flow cell #1 from the signal of flow cell #2, the resulting sensorgram signals from each cycle were converted into percentage values. Then the Kd and IC50 values for each RGD compounds were calculated.

[2] = molecular target: T1, Integrin αvβ3 expressing U87MG cells (Homo sapiens, UniProt P05106+P06756); test: Cell-based integrin binding competition assay; conditions: competition with 2 μM fluorescence labeled compound 18, 2 hrs
T1 construct: Integrin αvβ3 expressing U87MG cells; endogenous in cells; host or cells: U87MG
Description: Integrin αvβ3 expressing U87MG cells were incubated with a series of concentration of RGD compounds (0-32 μM) in the presence of 2 μM of green fluorescence labeled compound 18 for 2 hrs. After incubation, cells were washed three times to eliminate unbound RGD compounds. Fluorescence readings (RLU) were then taken (excitation at 491 nm, emission at 518 nm, cutoff 515 nm).
The results are consistent with that of surface plasmon resonance assay.

[3] = system: tumor xenograft of either U87MG human glioblastoma or A431 human squamous cell carcinoma; conditions: mouse, in vivo
Description: PET Studies: In vivo microPET imaging of a tumor-bearing mouse is performed on an anesthetized mouse bearing tumor xenograft of either U87MG human glioblastoma or A431 human squamous cell carcinoma after administration of cyclic peptidomimetic. […] See e.g. FIG. 3-6.

[4] = cited from earlier work
[5] = system: A431 human squamous cell carcinoma model; conditions: tumor cells integrin negative; cited from earlier work
[6] = molecular target: integrin (Homo sapiens, UniProt P05106+P06756); conditions: cited from earlier work
[7] = system: integrin-positive M21 melanoma xenograft; conditions: integrin-positive M21 melanoma xenograft model; cited from earlier work
[8] = SPR, compared with RGDfK, FIG. 1

binding affinity to integrin αvβ3 ([1]; 'inverse' SPR, compound 17 immobilized on CM5 chip, integrin αvβ3 25 nM, 14° C.): surprisingly high binding affinity
IC50 [1, 8]: very close to those of RGDfK
Kd [1, 8]: very close to those of RGDfK
potency [2]: very similar in potency
SMILES: N=C(N)NCCC[C@@H]1NC(=O)[C@H](CCCCN)n2cc(nn2)[C@H](Cc2ccccc2)NC(=O)[C@H](CC(=O)O)NC(=O)CNC1=O [Compound 1]

tumor uptake and retention [3]: good tumor uptake and retention
wash-out rate from muscle and other healthy tissues [3]: fast wash-out rate
SMILES: N=C(N)NCCC[C@@H]1NC(=O)[C@H](CCCCNC(=O)CCOCCOCCOCCOCCNC(=O)Cn2cc(CCCF)nn2)n2cc(nn2)[C@H](Cc2ccccc2)NC(=O)[C@H](CC(=O)O)NC(=O)CNC1=O [Compound 2]
renal clearance and liver uptake [3]: favorable renal clearance and very little liver uptake

tumor uptake and retention [3]: good tumor uptake and retention
wash-out rate from muscle and other healthy tissues [3]: fast wash-out rate
SMILES: N=C(N)NCCC[C@@H]1NC(=O)[C@H](CCCCNC(=O)CCN(CCC(=O)NCCCC[C@H]2C(=O)N[C@@H](CCCNC(=N)N)C(=O)NCC(=O)N[C@@H](CC(=O)O)C(=O)N[C@@H](Cc3ccccc3)c3cn2nn3)C(=O)CCOCCOCCOCCOCCNC(=O)Cn2cc(CCCF)nn2)n2cc(nn2)[C@H](Cc2ccccc2)NC(=O)[C@H](CC(=O)O)NC(=O)CNC1=O [Compound 3]
renal clearance and liver uptake [3]: favorable renal clearance and very little liver uptake

SMILES: CC([18F])C(=O)NC[C@H]1OC(C(=O)NCCCC[C@@H]2NC(=O)C(Cc3ccccc3)NC(=O)[C@H](CC(=O)O)NC(=O)CNC(=O)[C@H](CCCNC(=N)N)NC2=O)[C@@H](O)C(O)C1O (stereo partly drawn) [[^18F]galacto-RGD]
activity accumulation in organs ([4]; both preclinical models and human studies): prominent activity accumulation in the liver, kidneys, spleen, and intestines
safety of administration ([4]; healthy volunteers and a limited number of cancer patients): could be safely administered to patients
pharmacokinetic behavior ([4]; human, in vivo): unfavorable pharmacokinetic behavior
tumor standard uptake values ([4]; human, in vivo): modest tumor standard uptake values
delineation of integrin-positive lesions ([4]; initial clinical trials): able to delineate certain lesions that were integrin-positive with reasonable contrast
visualization of integrin αvβ3 expression from tumor vasculature [5]: sensitive enough for visualization of integrin αvβ3 expression
integrin binding affinity [6]: relatively low integrin binding affinity
tumor uptake [7]: integrin αvβ3-specific tumor uptake
